Reference: ChEMBL document CHEMBL6127053, “Discovery of orally bioavailable phosphonate prodrugs of potent ENPP1 inhibitors for cancer treatment” (Eur J Med Chem, 2024)
In brackets after ≈: the same amount, converted by molar mass.

How the values were obtained:
Cytochrome P450 2C9 = Cytochrome P450 2C9 (Homo sapiens, UniProt P11712); experiment: Inhibition of CYP2C9 (unknown origin); assay type: ADME
Cytochrome P450 2C19 = Cytochrome P450 2C19 (Homo sapiens, UniProt P33261); experiment: Inhibition of CYP2C19 (unknown origin); assay type: ADME
Cytochrome P450 1A2 = biological target: T1, Cytochrome P450 1A2 (Homo sapiens, UniProt P05177); experiment: Inhibition of CYP1A2 (unknown origin); assay type: ADME
T1 sequence (P05177 whole entry): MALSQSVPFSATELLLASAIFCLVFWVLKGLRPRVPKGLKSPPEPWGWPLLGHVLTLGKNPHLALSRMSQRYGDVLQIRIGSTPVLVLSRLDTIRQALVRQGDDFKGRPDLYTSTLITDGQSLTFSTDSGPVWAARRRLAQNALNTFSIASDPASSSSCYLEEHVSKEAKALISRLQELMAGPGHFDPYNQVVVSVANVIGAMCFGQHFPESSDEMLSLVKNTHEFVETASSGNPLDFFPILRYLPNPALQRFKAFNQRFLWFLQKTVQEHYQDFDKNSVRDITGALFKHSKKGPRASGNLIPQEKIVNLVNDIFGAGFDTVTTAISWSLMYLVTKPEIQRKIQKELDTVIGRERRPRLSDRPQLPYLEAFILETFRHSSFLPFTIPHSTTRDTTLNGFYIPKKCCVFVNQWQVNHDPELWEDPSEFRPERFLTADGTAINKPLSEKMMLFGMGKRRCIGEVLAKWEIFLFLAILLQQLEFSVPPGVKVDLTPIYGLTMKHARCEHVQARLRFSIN

Cytochrome P450 2D6 = Cytochrome P450 2D6 (Homo sapiens, UniProt P10635); experiment: Inhibition of CYP2D6 (unknown origin); assay type: ADME
Cytochrome P450 3A4 = Cytochrome P450 3A4 (Homo sapiens, UniProt P08684); experiment: Inhibition of CYP3A4 (unknown origin); assay type: ADME
[1] = biological target: T2, Ectonucleotide pyrophosphatase/phosphodiesterase family member 1 (Mus musculus, UniProt P06802)
T2 sequence (P06802 whole entry): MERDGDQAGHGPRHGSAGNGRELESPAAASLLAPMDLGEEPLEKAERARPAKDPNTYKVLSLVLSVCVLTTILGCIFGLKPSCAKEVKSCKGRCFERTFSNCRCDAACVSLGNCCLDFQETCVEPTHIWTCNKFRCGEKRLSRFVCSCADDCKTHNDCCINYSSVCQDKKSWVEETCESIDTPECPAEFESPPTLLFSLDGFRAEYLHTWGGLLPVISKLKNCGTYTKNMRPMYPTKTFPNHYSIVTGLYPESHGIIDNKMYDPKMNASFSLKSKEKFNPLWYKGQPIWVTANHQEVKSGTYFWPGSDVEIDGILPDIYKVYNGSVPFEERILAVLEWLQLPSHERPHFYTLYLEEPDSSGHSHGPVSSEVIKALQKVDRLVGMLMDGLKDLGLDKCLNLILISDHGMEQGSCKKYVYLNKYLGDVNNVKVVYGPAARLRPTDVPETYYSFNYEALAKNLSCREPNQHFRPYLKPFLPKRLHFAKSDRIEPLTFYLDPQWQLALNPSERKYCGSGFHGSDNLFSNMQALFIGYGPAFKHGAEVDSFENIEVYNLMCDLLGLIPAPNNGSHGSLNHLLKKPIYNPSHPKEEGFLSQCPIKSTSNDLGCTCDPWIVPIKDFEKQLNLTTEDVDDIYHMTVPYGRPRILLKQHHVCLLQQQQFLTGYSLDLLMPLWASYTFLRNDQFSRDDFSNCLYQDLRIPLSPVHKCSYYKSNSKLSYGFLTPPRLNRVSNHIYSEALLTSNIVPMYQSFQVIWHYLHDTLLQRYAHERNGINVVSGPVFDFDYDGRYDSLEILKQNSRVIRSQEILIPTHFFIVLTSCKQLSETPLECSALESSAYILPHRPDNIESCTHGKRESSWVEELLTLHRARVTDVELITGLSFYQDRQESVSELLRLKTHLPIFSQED

[2] = biological target: T3, Ectonucleotide pyrophosphatase/phosphodiesterase family member 1 (Homo sapiens, UniProt P22413); experiment: Inhibition of ECD-His-tagged human recombinant ENPP1 using 2',3'-cGAMP as substrate preincubated with enzyme for 15 mins followed by substrate addition and incubated in R1 reaction buffer for 1 hr and treated in R2 reaction buffer for 1 hr measured at pH 7.5 by luminescence based analysis
T3 sequence (P22413 whole entry): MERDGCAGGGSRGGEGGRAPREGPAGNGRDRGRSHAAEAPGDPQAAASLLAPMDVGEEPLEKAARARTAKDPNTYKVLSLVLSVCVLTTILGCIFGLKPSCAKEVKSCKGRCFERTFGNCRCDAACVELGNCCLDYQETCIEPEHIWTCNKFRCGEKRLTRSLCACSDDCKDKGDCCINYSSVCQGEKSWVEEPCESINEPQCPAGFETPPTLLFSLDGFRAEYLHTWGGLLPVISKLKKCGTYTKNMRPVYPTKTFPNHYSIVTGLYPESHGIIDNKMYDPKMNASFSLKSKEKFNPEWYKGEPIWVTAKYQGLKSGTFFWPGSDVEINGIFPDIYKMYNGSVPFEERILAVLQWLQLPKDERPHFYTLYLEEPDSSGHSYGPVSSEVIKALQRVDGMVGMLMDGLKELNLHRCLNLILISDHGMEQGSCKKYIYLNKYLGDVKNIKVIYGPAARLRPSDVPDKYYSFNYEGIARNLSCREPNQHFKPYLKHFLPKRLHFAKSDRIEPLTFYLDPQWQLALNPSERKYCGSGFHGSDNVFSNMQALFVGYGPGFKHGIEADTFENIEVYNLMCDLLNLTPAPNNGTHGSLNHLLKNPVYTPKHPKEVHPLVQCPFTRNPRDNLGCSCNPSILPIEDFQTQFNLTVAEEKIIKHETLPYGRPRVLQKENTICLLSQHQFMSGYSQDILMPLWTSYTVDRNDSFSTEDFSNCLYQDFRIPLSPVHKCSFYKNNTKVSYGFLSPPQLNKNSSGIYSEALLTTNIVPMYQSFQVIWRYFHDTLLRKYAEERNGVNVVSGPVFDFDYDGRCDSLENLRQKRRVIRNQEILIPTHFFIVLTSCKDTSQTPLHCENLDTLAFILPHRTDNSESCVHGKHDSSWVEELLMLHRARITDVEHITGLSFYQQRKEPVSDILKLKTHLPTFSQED

[3] = biological target: T3, Ectonucleotide pyrophosphatase/phosphodiesterase family member 1; experiment: Inhibition of ENPP1 (unknown origin) at pH 7.5
[4] = Prodrug conversion in dog assessed as oral bioavailability of (4-((7-Methoxy-1,8-naphthyridin-4yl)oxy)benzyl)phosphonic acid metabolite at 2 mg/kg measured for 24 hrs by LC-MS/MS analysis; assay type: ADME, organism-based, Canis lupus familiaris; conditions: in vivo
[5] = Prodrug conversion in mouse assessed as half-life of (4-((7-Methoxy-1,8-naphthyridin-4yl)oxy)benzyl)phosphonic acid metabolite at 5 mg/kg, po measured for 24 hrs by LC-MS/MS analysis; assay type: ADME, organism-based; conditions: in vivo
[6] = Prodrug conversion in rat assessed as oral bioavailability of (4-((7-Methoxy-1,8-naphthyridin-4yl)oxy)benzyl)phosphonic acid metabolite at 5 mg/kg measured for 24 hrs by LC-MS/MS analysis; assay type: ADME, organism-based; conditions: in vivo
[7] = Prodrug conversion in dog assessed as half-life of (4-((7-Methoxy-1,8-naphthyridin-4yl)oxy)benzyl)phosphonic acid metabolite at 2 mg/kg, po measured for 24 hrs by LC-MS/MS analysis; assay type: ADME, organism-based, Canis lupus familiaris; conditions: in vivo
physchem = conditions: aqueous, pH 7.4
Description: Aqueous solubility of the compound at pH 7.4

[8] = Prodrug conversion in rat assessed as half-life of (4-((7-Methoxy-1,8-naphthyridin-4yl)oxy)benzyl)phosphonic acid metabolite at 5 mg/kg, po measured for 24 hrs by LC-MS/MS analysis; assay type: ADME, organism-based; conditions: in vivo
Panc02 [9] = experiment: Antitumor activity against mouse Panc02 cells implanted in C57BL/6 mouse assessed as inhibition of tumor growth at 200 mg/kg, po bid for 35 days and measured on day 35; assay type: functional; conditions: Panc02, 840 h, time 35 day, read-out: TGI
[10] = Prodrug conversion in mouse assessed as oral bioavailability of (4-((7-Methoxy-1,8-naphthyridin-4yl)oxy)benzyl)phosphonic acid metabolite at 5 mg/kg measured for 24 hrs by LC-MS/MS analysis; assay type: ADME, organism-based; conditions: in vivo
Panc02 [11] = experiment: Synergistic antitumor activity against mouse Panc02 cells implanted in C57BL/6 mouse assessed as inhibition of tumor growth at 200 mg/kg, po bid for 35 days and irradiated with 5Gy radiation on days 1,8,15,22,29 and measured on day 35 (reference value: 26%); assay type: functional; conditions: Panc02, light or radiation study, 840 h, time 35 day, read-out: TGI
[12] = Prodrug conversion in dog assessed as AUC(0 to t) of (4-((7-Methoxy-1,8-naphthyridin-4yl)oxy)benzyl)phosphonic acid metabolite at 2 mg/kg, po measured for 24 hrs by LC-MS/MS analysis; assay type: ADME, organism-based, Canis lupus familiaris; conditions: in vivo
Panc02 [13] = experiment: Synergistic antitumor activity against mouse Panc02 cells implanted in C57BL/6 mouse assessed as inhibition of tumor growth by measuring combination ratio at 200 mg/kg, po bid for 35 days and irradiated with 5Gy radiation on days 1,8,15,22,29 and measured on day 35; assay type: functional; conditions: time 35 day
[14] = Toxicity in C57BL/6 mouse implanted with mouse Panc02 cells assessed as effect on body weight at 200 mg/kg, po bid for 35 days; assay type: organism-based; conditions: in vivo, 840 h, time 35 day
[15] = Prodrug conversion in rat assessed as AUC (0 to t) of (4-((7-Methoxy-1,8-naphthyridin-4yl)oxy)benzyl)phosphonic acid metabolite at 5 mg/kg, po measured for 24 hrs by LC-MS/MS analysis; assay type: ADME, organism-based; conditions: in vivo
[16] = Prodrug conversion in C57BL/6 mouse implanted with mouse Panc02 cells assessed as time during which unbound plasma concentration of (4-((7-Methoxy-1,8-naphthyridin-4yl)oxy)benzyl)phosphonic acid metabolite exceeds IC90 for inhibition of ENPP1 in mouse EL4 cells at 200 mg/kg, po bid for 35 days; assay type: ADME, organism-based; conditions: in vivo, 840 h, time 35 day
[17] = biological target: Voltage-gated inwardly rectifying potassium channel KCNH2 (Homo sapiens, UniProt Q12809); experiment: Inhibition of hERG; assay type: toxicity
[18] = Prodrug conversion in mouse assessed as AUC(0 to t) of (4-((7-Methoxy-1,8-naphthyridin-4yl)oxy)benzyl)phosphonic acid metabolite at 5 mg/kg, po measured for 24 hrs by LC-MS/MS analysis; assay type: ADME, organism-based; conditions: in vivo
[19] = biological target: T3, Ectonucleotide pyrophosphatase/phosphodiesterase family member 1; experiment: Inhibition of ENPP1 (unknown origin) at pH 8.8
[20] = biological target: T3, Ectonucleotide pyrophosphatase/phosphodiesterase family member 1; experiment: Inhibition of human recombinant ENPP1 at pH 8

Cytochrome P450 2C9, sequence (P11712 whole entry): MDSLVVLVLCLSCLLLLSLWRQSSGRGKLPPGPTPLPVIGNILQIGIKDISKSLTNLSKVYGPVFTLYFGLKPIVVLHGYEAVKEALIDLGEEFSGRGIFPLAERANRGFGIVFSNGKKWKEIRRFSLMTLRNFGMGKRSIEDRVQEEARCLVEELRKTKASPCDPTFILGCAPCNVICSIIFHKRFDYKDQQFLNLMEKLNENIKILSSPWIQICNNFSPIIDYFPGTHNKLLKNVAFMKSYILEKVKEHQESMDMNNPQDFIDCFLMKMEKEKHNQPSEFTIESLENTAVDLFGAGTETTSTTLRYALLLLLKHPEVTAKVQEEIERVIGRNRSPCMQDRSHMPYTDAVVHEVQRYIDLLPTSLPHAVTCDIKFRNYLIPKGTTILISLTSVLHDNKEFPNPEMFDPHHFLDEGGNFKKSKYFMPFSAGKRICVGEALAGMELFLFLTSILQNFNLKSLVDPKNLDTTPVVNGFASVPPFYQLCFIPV
Cytochrome P450 3A4, sequence (P08684 whole entry): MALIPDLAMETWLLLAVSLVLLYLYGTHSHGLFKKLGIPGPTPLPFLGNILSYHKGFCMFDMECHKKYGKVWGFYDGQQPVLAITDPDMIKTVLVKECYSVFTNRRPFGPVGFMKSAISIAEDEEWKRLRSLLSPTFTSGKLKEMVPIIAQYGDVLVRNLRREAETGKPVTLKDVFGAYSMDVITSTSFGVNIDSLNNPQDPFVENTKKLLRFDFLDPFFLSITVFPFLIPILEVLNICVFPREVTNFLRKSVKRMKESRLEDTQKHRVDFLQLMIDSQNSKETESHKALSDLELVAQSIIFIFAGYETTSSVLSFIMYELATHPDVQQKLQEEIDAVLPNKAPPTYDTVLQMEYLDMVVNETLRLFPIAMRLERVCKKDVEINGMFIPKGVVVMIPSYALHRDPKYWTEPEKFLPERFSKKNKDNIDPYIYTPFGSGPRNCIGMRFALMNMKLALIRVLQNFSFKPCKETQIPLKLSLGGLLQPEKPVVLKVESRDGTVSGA
Cytochrome P450 2D6, sequence (P10635 whole entry): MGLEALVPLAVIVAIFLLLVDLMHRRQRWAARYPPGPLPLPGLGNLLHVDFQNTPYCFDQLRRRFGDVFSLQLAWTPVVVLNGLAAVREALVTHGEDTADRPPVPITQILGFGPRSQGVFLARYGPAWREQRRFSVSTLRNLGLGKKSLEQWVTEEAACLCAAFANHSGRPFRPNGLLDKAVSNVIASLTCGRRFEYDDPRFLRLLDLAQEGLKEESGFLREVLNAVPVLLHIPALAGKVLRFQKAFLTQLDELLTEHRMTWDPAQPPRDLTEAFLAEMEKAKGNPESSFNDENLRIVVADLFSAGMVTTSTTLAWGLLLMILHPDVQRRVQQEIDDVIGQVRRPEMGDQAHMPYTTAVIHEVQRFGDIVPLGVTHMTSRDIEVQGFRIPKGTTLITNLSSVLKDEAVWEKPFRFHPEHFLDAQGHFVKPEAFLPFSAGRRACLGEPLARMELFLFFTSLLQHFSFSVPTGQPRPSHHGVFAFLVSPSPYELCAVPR
Cytochrome P450 2C19, sequence (P33261 whole entry): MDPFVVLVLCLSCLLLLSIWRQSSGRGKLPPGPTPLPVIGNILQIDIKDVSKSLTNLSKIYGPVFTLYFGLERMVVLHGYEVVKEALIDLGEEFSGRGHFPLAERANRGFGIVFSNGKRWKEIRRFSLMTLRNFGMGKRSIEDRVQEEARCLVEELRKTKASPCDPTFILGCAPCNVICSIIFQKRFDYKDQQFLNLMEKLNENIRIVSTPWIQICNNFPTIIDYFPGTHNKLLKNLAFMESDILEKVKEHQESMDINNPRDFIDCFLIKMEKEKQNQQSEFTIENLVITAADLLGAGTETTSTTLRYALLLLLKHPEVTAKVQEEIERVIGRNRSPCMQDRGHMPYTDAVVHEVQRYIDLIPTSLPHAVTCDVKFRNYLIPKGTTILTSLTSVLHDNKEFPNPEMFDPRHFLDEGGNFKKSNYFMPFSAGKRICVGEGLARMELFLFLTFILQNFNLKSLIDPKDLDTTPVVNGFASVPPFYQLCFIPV
Voltage-gated inwardly rectifying potassium channel KCNH2, sequence (Q12809 whole entry): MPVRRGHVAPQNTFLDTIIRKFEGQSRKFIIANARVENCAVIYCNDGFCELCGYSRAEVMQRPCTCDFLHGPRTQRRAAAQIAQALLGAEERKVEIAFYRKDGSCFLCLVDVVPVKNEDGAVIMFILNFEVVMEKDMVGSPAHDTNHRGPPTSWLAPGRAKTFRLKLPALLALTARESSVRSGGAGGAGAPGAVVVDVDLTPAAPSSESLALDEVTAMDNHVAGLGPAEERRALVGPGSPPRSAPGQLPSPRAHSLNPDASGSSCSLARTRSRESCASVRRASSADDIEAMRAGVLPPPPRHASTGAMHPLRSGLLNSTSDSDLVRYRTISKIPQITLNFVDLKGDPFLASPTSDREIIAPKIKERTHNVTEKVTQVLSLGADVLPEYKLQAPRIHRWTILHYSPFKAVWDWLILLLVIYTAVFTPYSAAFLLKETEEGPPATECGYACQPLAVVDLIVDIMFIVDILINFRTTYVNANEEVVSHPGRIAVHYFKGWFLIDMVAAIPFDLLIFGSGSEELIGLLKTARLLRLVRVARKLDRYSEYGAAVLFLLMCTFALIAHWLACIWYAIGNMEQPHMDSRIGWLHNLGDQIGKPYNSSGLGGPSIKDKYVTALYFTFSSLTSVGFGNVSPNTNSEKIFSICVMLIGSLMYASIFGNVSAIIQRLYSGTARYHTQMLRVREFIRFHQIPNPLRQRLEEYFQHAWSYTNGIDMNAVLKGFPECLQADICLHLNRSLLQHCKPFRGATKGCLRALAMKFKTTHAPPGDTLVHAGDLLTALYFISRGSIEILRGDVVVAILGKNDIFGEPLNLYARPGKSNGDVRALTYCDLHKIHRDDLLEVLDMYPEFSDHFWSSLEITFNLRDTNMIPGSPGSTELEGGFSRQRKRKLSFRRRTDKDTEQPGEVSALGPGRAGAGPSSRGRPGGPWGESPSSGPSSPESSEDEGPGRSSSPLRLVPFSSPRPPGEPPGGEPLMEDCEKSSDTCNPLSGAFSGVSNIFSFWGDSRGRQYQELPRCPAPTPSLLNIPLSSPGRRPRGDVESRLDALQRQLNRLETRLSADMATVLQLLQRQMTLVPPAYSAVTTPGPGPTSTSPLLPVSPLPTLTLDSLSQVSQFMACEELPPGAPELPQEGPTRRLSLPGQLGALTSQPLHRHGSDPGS

Row | SMILES | IC50 (Cytochrome P450 2C9) [µM] | IC50 (Cytochrome P450 2C19) [µM] | IC50 (Cytochrome P450 1A2) [µM] | IC50 (Cytochrome P450 2D6) [µM] | IC50 (Cytochrome P450 3A4) [µM] | also measured
1 | COc1ccc2c(Oc3ccc(CC(=O)NO)cc3)ccnc2n1 | > 50 | > 50 | > 50 | > 50 | > 50 | –
2 | COc1cccc2c(N3CCC(CCP(=O)(O)O)CC3)ncnc12 | – | – | – | – | – | IC50 [1]: 0.0022 µM; IC50 [2]: 0.0062 µM; Ki [3]: < 0.002 µM
3 | COc1ccc2c(Oc3ccc(C4(C(=O)NO)CCCC4)cc3)ccnc2n1 | 9.2 | 8.2 | – | – | – | –
4 | COc1ccc2c(Oc3ccc(CP(=O)(OCOC(=O)C(C)(C)C)OCOC(=O)C(C)(C)C)cc3)ccnc2n1 | > 50 | > 50 | > 50 | > 50 | > 50 | F [4]: 21.1%; t1/2 [5]: 4.2 h; F [6]: 39.8%; t1/2 [7]: 1.8 h; solubility (physchem): 20.6 µM (≈ 11.8 µg/mL); t1/2 [8]: 4.22 h; inhibition in vivo at 200 mg/kg (Panc02 [9]): 11%; F [10]: 17%; inhibition in vivo at 200 mg/kg (Panc02 [11]): 51%; AUCt [12]: 793 ng·h/mL; Ratio (Panc02 [13]): 1.2; Activity [14]: Non-Toxic; AUCt [15]: 5984 ng·h/mL; T>IC90 [16]: 18 h; IC50 [17]: > 30 µM; AUCt [18]: 937 ng·h/mL
5 | COc1ccc2c(Oc3ccc(CP(=O)(O)O)cc3)ccnc2n1 | > 50 | > 50 | > 50 | > 50 | > 50 | IC50 [17]: > 30 µM
6 | NC(=O)c1ccc2c(ncn2Cc2ccc(P(=O)(O)O)cc2)n1 | – | – | – | – | – | Ki [19]: < 0.01 µM
7 | COc1ccc2c(Oc3ccc(NS(N)(=O)=O)cc3)ccnc2c1 | – | – | – | – | – | Ki [20]: < 0.1 µM
8 | COc1ccc2c(Oc3ccc(CC(=O)NO)cc3)ccnc2c1 | 2.3 | 4 | 8.1 | 4.8 | 10.3 | –
